According to US20240000741A1, “ALL-TRANS RETINOIC ACID ENHANCES RADIOTHERAPY AND OVERCOMES IMMUNE SUPPRESSION FOR CANCER THERAPY” (The University of Chicago, priority 2022, published 2024):
Where a name gives a salt, the structure may show the parent alone.

Legend:
[1] = tested on: MC38 colon carcinoma tumors; assay: MC38 tumor growth after local ablative IR and/or RA; type: in vivo, mouse
immune cells in tumors = assay: Flow cytometric analysis of immune cells in treated MC38 tumors and draining lymph nodes; type: in vivo, mouse; details: FTY720 administration, after IR+RA treatment
From the text: Single cell suspensions were obtained as previously described (40). Cells were blocked with anti-Fc receptor (2.4 G2, BioXCell, Lebanon, New Hampshire, United States of America) and stained for live/dead with Zombie UV, followed staining using antibodies against CD45, CD4, CD8, NK1.1, CD11b, CD11c, Ly6C, Ly6G, F4/80, CD44, CD62L.
The following antibodies were used for high-dimensional flow analysis: BV605-CX3CR, BV650-XCR1, PB-CD11 b, BV510-CD24, BV711-CD64, BV785-F4/80, AF532-CD45, PerCP-Cy5.5-1-A/I-E, PerCP-eFluor710-Flt3, PE-Cy7-CD11c, FITC-Ly6C, PE-iNOS, PE-Dazzle 594-CD103, APC-TNF, Alexa Fluor 700-CD206, and APC-Cy7-SIRPα. For IFN-γ and GrzB (515407) staining, cells were cultured with PMA/ionomycin and brefeldin A (423303, BioLegend, San Diego, California, United States of America) for 6 hours followed by intracellular staining using BD fix/perm intracellular staining kit (554714, BD Biosciences, Franklin Lakes, New Jersey, United States of America). For TNF-α staining, cells were stimulated by PMA/ionomycin and brefeldin A for 4 hours followed by intracellular staining. Foxp3 (17-5773-82, Thermo Fisher Scientific, Waltham, Massachusetts, United States of America) Ki67 (Clone 16-A8, BioLegend, San Diego, California, United States of America) and iNOS staining were performed following Foxp3 staining protocol (00-5523-00, Thermo Fisher Scientific, Waltham, Massachusetts, United States of America). Cells were analyzed on Fortessa flow cytometer (BD Biosciences, Franklin Lakes, New Jersey, United States of America) or on Aurora spectral cytometer (Cytek Biosciences, Fremont, California, United States of America. Data was analyzed with software sold under the tradename FLOWJO software (FlowJo LLC, Ashland, Oregon, United States of America).
Immune cells in tumors 4 days after the start of the treatment were examined. […] In CD11b+ subsets, Ly6C^+ cells, including CD11c^+Ly6C^+ cells, increased by 4-fold in tumors receiving the combination treatment. […] Next, the DC population was examined by analyzing high-dimensional flow cytometry data using traditional dendritic cell (DC) markers. Monocyte-derived dendritic cells (MoDCs) (Ly6C^+CD11 b^+CD11c^+ MHC-II^+CXCR3^+CD64^+SIRPα^+CD206^− cells), a low level of type two dendritic cells (DC2s) (Ly6C^−CD11b^+CD11c^+MHC-11^+CXCR3^+CD64^−SIRPα+CD206^−) and a very low level of type one dendritic cells (DC1s) (Ly6C^−CD11b^−CD11c^+MHC-11^+ CXCR1^+CD103^+CD64^−) were detected in IR and RA treated tumors.

[2] = tested on: bone marrow-derived DCs (BMDCs); assay: iNOS induction in bone marrow-derived dendritic cells in vitro; type: cell-based, mouse; details: addition of IFN-γ to BMDCs cultured with RA
Procedure: Femurs and tibias from 8- to 10-week-old mice were harvested. BMDCs were derived as described (40). The cultured BMDC were collected on day 6 for further experiments. For Inf-MAC induction in vitro, bone marrow cells were cocultured with the presence of 200 μM RA. On day 6, indicated amount of IFN-γ was added directly to the culture. Cells were stained for iNOS and TNF-α after 24-36 hours and analyzed using flow cytometry.

For `CC(=N)NCc1cccc(CN)c1.Cl.Cl` [1400 W, N-[[-(aminomethyl)phenyl]methyl]-ethanimidamide dihydrochloride], the “antitumor efficacy of combined IR and RA treatment” value ([1]; iNOS inhibitor 1400 W administered in vivo) was “significantly diminished”.

For `CCCCCCCCc1ccc(CCC(N)(CO)CO)cc1` [FTY720, fingolimod hydrochloride], the “efficacy of IR+RA treatment” value ([1]; FTY720 20 μg per dose by gavage every day for 7 days) was “diminished to the level of IR alone”, the “response to IR” value ([1]; FTY720 20 μg per dose by gavage every day for 7 days, IR alone) was “not affected” and the “iNOS production in Inf-MACs in tumors and in circulating blood” value (immune cells in tumors) was “abolishes increased iNOS production”.

B1: IFN-γ: interferon-gamma added to BMDC culture (protein, UniProt P01580 23-155, looked up)
Interferon gamma: HGTVIESLESLNNYFNSSGIDVEEKSLFLDIWRNWQKDGDMKILQSQIISFYLRLFEVLKDNQAISNNISVIESHLITTFFSNSKAKKDAFMSIAKFEVNNPQVQRQAFNELIRVVHQLLPESSLRKRKRSRC
For B1, the “iNOS production in BMDCs” value [2] was “synergistically increased iNOS production in a dose dependent manner”.
